Source: article PMC4774911, “Biochemical Screening of Five Protein Kinases from Plasmodium falciparum against 14,000 Cell-Active Compounds” (PLoS ONE, 2016)
Where “and” joins values, the source holds several entries; their conditions need not be identical. Equal values may be shown once.

Columns and labels:
Assay in all cases: biochemical
Parameters in all cases: endogenous in cells; host or cells: K562 cell extract; species or system K562 (extract); replicate k of n = 2 (each experiment ID is one independent experiment; two experiment IDs per compound)
Conditions in all cases: read-out: KDapp
PLK4 = biological target: T1, PLK4 (Homo sapiens, UniProt O00444)
T1 sequence (O00444 1-970): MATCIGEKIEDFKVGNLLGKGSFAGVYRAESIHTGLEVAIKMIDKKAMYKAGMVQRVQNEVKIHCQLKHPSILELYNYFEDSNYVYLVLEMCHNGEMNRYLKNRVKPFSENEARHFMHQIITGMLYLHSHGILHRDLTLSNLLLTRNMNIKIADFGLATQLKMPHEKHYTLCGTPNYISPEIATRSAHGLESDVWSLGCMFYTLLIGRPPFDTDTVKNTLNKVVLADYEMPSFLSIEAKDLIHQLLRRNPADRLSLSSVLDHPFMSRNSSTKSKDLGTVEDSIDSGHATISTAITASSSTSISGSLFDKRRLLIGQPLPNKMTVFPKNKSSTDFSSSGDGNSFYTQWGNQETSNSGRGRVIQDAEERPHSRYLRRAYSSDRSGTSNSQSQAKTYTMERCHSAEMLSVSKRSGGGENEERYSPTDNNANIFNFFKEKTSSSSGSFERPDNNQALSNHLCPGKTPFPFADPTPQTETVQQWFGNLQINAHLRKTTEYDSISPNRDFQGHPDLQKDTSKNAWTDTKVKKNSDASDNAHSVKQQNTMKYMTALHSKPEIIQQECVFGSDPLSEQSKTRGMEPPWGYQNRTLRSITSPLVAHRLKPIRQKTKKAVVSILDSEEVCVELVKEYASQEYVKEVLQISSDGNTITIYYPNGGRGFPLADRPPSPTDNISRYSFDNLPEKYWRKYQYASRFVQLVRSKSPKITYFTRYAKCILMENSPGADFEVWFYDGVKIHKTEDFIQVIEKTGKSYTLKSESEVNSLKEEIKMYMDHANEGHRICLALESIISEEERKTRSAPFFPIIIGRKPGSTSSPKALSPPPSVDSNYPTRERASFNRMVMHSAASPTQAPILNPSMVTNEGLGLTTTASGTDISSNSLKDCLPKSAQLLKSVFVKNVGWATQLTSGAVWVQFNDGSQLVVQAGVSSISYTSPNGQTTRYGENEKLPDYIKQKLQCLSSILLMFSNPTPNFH

PKMYT1 = biological target: T2, PKMYT1 (Homo sapiens, UniProt Q99640)
T2 sequence (Q99640 1-499): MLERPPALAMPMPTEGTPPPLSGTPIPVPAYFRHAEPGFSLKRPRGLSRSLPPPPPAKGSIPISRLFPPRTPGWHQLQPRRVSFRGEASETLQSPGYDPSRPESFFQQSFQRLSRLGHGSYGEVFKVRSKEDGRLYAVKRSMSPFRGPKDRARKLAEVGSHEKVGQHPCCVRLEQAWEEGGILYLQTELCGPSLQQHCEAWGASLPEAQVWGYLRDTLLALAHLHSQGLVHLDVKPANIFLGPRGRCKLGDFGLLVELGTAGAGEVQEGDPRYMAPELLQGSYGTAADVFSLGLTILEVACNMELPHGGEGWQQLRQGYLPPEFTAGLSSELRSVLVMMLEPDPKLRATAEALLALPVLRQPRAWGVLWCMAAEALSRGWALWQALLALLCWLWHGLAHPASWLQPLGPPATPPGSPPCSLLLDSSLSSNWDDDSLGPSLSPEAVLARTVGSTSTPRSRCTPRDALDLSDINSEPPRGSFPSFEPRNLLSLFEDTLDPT

PIK3C3 = PIK3C3 (Homo sapiens, UniProt Q8NEB9)
PIK3R4 = PIK3R4 (Homo sapiens, UniProt Q99570)
LIMK1 = LIMK1 (Homo sapiens, UniProt P53667)
TNK2 = TNK2 (Homo sapiens, UniProt Q07912)
NLK = biological target: T3, NLK (Homo sapiens, UniProt Q9UBE8)
T3 sequence (Q9UBE8 1-527): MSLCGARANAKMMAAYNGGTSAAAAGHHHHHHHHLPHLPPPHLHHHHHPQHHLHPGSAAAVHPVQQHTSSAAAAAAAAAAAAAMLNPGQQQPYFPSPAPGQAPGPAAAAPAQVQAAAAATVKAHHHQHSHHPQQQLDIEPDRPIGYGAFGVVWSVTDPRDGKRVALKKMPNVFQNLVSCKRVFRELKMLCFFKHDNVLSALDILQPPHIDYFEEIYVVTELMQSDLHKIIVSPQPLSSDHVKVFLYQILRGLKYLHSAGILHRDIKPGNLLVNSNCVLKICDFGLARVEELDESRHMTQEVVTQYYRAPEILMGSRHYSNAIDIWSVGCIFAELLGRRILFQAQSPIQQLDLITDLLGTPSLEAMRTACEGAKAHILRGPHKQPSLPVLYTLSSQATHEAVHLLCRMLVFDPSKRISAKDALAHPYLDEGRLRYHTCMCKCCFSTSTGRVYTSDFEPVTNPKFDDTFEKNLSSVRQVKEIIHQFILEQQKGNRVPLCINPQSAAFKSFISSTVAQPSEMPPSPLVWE

PIK3R4, sequence (Q99570 whole entry): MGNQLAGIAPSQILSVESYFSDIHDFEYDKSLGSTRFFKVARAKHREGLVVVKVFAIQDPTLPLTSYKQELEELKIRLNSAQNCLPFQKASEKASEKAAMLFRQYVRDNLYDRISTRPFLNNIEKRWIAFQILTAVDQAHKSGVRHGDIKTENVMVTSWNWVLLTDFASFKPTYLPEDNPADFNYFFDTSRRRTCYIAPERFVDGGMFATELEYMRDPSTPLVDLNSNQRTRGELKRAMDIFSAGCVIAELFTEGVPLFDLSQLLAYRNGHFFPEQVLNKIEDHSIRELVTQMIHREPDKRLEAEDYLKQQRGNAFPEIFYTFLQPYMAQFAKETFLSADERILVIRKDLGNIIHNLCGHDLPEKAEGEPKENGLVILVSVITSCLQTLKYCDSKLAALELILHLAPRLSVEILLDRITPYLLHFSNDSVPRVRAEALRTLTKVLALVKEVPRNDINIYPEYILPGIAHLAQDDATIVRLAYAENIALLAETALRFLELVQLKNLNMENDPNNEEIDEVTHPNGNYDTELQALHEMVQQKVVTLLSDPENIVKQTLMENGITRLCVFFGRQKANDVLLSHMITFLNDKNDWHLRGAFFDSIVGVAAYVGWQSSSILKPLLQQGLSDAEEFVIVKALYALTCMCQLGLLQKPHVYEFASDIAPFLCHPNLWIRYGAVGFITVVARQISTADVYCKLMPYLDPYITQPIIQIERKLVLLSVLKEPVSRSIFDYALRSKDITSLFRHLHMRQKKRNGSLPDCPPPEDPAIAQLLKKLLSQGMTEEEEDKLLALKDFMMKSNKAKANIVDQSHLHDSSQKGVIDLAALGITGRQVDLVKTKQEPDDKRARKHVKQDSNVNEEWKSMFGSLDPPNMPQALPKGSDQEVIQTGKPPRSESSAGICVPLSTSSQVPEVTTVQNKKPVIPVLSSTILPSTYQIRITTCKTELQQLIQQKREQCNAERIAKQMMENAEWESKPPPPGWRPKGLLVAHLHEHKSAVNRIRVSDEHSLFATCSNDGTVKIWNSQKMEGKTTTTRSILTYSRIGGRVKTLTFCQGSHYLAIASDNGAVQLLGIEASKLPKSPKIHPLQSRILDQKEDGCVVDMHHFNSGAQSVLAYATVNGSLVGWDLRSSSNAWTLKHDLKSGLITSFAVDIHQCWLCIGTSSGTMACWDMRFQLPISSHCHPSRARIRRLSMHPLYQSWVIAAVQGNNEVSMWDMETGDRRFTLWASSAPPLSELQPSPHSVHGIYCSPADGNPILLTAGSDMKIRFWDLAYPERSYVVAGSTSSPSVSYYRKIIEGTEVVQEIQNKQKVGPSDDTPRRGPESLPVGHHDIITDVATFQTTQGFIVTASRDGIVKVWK
LIMK1, sequence (P53667 whole entry): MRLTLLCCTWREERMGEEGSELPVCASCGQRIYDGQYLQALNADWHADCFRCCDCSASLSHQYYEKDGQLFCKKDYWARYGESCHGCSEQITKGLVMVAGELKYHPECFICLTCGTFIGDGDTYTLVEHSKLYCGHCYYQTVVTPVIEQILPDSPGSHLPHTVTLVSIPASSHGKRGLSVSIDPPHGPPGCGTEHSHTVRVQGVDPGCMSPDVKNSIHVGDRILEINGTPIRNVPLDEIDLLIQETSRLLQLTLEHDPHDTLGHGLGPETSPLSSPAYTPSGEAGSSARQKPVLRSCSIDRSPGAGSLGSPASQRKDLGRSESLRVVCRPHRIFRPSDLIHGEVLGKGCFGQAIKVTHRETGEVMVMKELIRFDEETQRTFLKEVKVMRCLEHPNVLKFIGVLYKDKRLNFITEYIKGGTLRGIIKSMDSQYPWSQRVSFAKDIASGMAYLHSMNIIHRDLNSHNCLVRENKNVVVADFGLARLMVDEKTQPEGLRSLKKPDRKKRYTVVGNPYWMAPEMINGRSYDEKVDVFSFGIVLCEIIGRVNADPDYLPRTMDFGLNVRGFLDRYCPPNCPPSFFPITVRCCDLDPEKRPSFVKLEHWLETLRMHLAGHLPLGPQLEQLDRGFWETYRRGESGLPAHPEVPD
PIK3C3, sequence (Q8NEB9 whole entry): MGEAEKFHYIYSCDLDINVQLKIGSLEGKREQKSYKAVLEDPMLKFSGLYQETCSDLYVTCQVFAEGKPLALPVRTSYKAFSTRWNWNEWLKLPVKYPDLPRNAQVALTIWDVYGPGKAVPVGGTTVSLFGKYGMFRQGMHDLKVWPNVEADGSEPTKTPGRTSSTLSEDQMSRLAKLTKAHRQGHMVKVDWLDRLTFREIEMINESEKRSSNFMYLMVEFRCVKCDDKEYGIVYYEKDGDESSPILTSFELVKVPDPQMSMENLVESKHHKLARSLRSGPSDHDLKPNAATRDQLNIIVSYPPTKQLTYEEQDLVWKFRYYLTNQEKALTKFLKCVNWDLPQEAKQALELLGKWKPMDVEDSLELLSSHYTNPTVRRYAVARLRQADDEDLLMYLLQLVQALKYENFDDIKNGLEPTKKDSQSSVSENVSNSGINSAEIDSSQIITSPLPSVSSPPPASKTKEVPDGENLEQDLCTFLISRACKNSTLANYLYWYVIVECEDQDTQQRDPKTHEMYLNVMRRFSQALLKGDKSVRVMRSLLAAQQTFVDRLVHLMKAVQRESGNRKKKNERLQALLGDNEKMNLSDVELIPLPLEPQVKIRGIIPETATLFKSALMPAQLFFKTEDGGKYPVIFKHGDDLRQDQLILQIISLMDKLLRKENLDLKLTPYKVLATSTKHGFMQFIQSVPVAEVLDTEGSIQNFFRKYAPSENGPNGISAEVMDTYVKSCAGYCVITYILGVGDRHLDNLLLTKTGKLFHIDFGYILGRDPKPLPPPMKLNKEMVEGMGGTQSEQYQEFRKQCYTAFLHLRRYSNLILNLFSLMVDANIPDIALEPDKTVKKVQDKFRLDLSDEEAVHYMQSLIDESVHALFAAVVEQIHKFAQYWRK
TNK2, sequence (Q07912 whole entry): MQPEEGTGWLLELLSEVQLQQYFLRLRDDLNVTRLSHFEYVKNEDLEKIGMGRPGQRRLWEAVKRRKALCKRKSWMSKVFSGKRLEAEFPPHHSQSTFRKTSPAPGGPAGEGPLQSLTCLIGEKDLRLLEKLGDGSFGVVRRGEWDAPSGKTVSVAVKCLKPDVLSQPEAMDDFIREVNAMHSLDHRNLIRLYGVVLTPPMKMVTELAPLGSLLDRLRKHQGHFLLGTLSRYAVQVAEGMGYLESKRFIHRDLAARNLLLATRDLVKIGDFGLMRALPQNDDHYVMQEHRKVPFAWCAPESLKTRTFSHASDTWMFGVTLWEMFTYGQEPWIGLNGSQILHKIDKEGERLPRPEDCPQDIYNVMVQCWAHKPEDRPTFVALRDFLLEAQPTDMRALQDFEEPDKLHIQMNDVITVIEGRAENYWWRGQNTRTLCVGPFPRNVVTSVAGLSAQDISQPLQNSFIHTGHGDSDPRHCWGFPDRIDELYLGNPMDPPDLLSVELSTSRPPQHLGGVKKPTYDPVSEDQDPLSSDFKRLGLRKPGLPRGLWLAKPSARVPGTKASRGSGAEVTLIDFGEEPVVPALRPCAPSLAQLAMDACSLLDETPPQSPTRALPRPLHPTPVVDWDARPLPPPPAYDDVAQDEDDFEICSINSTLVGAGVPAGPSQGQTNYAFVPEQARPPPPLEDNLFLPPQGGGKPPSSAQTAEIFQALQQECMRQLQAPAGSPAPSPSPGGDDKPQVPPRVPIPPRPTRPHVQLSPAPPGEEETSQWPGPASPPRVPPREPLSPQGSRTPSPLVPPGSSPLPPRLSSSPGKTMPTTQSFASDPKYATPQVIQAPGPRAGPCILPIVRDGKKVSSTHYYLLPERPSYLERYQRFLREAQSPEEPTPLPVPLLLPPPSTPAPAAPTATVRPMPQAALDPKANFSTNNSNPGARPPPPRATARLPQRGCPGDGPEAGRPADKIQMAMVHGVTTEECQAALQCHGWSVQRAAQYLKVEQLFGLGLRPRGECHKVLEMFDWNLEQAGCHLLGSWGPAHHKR

CN1CCN(c2ccc(Nc3ncc(C#N)c(Nc4ccccc4C(N)=O)n3)cc2)CC1.Cl [TCMDC-134116]
Kd (PLK4): 0.0539 µM and 0.0692 µM | Kd (PKMYT1): 0.888 µM and 0.596 µM | Kd (PIK3C3): 0.957 µM | Kd (PIK3R4): 1.84 µM | Kd (LIMK1): 0.121 µM | Kd (TNK2): 0.0735 µM | Kd (NLK): 0.95 µM and 0.89 µM
